{"source": "patent US20040009168A1", "about": "“Multidose antibody formulation” (priority 2002, published 2004)", "key": {"[1]": {"system": "formulated humanized monoclonal antibody", "experiment": "Visual analysis of the antibody formulation with preservative", "assay_type": "physicochemical", "conditions": "for Visual analysis: after 2 days at 50° C.", "description": "(§1) The compatibility of six parenteral preservatives (benzyl alcohol, chlorobutanol, methyl paraben, propyl paraben, phenol, and m-cresol) with the formulated humanized monoclonal antibody was tested. The preservatives were added to the formulated antibody based on their commonly used concentration ranges in marketed multidose products (3). Protein aggregation was suspected to be the primary degradation pathway. Preliminary evaluation of the preservatives was done initially by DSC and after 2 days of incubation at 50° C. by visual inspection for appearance and by SEC for soluble aggregates."}, "[2]": {"system": "formulated humanized monoclonal antibody", "experiment": "Size-exclusion chromatography (SEC), monomer content", "assay_type": "physicochemical", "conditions": "for Monomer (%): 1 week at 45 ° C.; for Percent monomer (by SEC): after 2 days at 50° C.", "description": "as §1\n(§2) Because of the results seen in the preliminary evaluation, additional analyses were done using lower concentrations of the preservatives.\nThe monomer content, soluble aggregates, and clips due to hydrolysis were monitored by size-exclusion chromatography. The analytical system employed consisted of an HPLC pump (Perkin Elmer, Series 410) and an autosampler (Perkin Elmer, ISS 2000) connected to a diode array detector (Perkin Elmer, 235C). Two size-exclusion chromatography columns (Tosohaas TSK-Gel, G3000SWXL,), connected in tandem, were used for sample separation. The composition of the mobile phase was 200 mM KPO4, 150 mM NaCl, pH 6.9. Samples were diluted to 1 mg/mL and a sample volume of 40 μL was injected for analysis. The flow rate was 1.0 mL/min, and detection was at 220 and 280 nm."}, "[3]": {"system": "Candida albicans, and Aspergillus niger", "experiment": "Preservative screening test (modified USP/EP preservative efficacy test), fungi", "assay_type": "cell-based", "conditions": "for Fungi × 10^5 (cfu/mL): 1 week at 25 ° C., total fungal count 2.84 × 10^5 cfu/mL", "description": "(§3) The efficacy of the preservative against various microorganisms was measured using a modified USP/EP preservative efficacy test. These tests were conducted at Microconsult Inc. (Dallas, Tex.). In the procedure, formulations were tested against the following microorganisms: Escherichia coli, Staphylococcus aureus, Pseudomonas aeruginosa, Candida albicans, and Aspergillus niger. The three bacterial strains were inoculated together at a total concentration of ˜10^5 cfu/mL, and the two fungi were inoculated together at a total concentration of ˜10^5 cfu/mL. Samples were incubated for 7 days at room temperature (25° C.), and the total bacterial and fungal counts were measured using a colony counter. The log reduction (LR) values for the bacterial and fungal counts were calculated as log (initial count/final count).\n(§4) In the unmodified USP/EP preservative efficacy tests, each microorganism is tested separately at a concentration of ˜10^5 cfu/mL. […] The preservative efficacy test was modified in this study to reduce the total sample requirement and cost per analysis. Although the bacterial and fungal strains were not tested individually at specified concentrations, by comparing the overall bacterial and fungal log reduction values with the regulatory requirements, an assessment is made of the efficacy of the preservative against these microorganisms.\n(§5) The formulations were prepared by adding the preservatives at the desired concentrations as per the I-optimal design table (Table II), generated using the software Strategy (Experiment Strategies Foundation & Process Builder, Inc.). All samples were incubated at 37° C. for 9 weeks. Because protein aggregation was known to be the primary degradation pathway, protein stability was examined by SEC and right-angle light scattering to monitor the formation of soluble and insoluble aggregates, respectively, and by UV spectroscopy to monitor changes in the protein concentration. The biological activity of the samples was assessed after 1 month at 37° C. Furthermore, to assess the antimicrobial efficacy of the formulations, samples were examined by the preservative screening test at the initial time point. Samples were incubated at room temperature, and the aerobic plate counts were measured based on the minimum requirements of the USP and BP/EP preservative efficacy tests at 24 hours, 7 days, and 14 days."}, "[4]": {"system": "formulated humanized monoclonal antibody", "experiment": "Stability and bioactivity of the protein formulated with 0.75% benzyl alcohol, monitored over time", "assay_type": "physicochemical"}, "[5]": {"system": "antigen expressed on human T cells", "experiment": "Potency testing by FACS binding assay (flow cytometry)", "conditions": "1 week at 45 ° C.", "description": "as §2\nThe biological activity (potency) of the protein was measured by flow cytometry, based on the binding of the antibody antigen expressed on human T cells."}, "[6]": {"system": "formulated humanized monoclonal antibody", "experiment": "Differential scanning calorimetry (DSC), denaturation temperature", "assay_type": "physicochemical", "conditions": "initial time point, t0", "description": "as §1\nA decrease in the denaturation temperature reflects a destabilizing effect of the preservative on formulation stability. The denaturation temperature (Tm) of the sample was measured using the Pyris 1 differential scanning calorimeter (Perkin Elmer). A sample volume of 50 μL was taken from a 10 mg/mL protein sample and sealed in a stainless steel pan. The sample was held at 32° C. for 2 minutes, and heated to 100° C. at the rate of 10° C./min."}, "[7]": {"system": "Escherichia coli, Staphylococcus aureus, Pseudomonas aeruginosa, Candida albicans, and Aspergillus niger", "experiment": "USP and EP/BP preservative efficacy tests", "assay_type": "cell-based", "conditions": "0.75% benzyl alcohol", "description": "as §4\nThe antimicrobial efficacy of the preservative was monitored by the USP and EP/BP preservative efficacy tests."}, "[8]": {"system": "Escherichia coli, Staphylococcus aureus, Pseudomonas aeruginosa", "experiment": "Preservative screening test (modified USP/EP preservative efficacy test), bacteria", "assay_type": "cell-based", "conditions": "for b-coefficient, Bacterial LR: ± 95% confidence limits; for Bacterial × 10^4 (cfu/mL): 1 week at 25 ° C., total bacterial count 8.78 × 10^4 cfu/mL", "description": "as §3, §4, §5"}, "[9]": {"conditions": "preservative 0.5%, listed as benzyl alcohol"}, "[10]": {"conditions": "main effect of the preservative (bi)"}, "[11]": {"conditions": "preservative 0.75%, listed as benzyl alcohol"}, "[12]": {"conditions": "quadratic term of one preservative (bii)"}, "[13]": {"conditions": "single preservative, 0.75% benzyl alcohol"}}, "note": "Entries after “also recorded” stand apart in the source; their conditions may differ.", "data": [{"smiles": "OCc1ccccc1", "note": "[Benzyl alcohol, benzyl alcohol]", "values": [{"measurement": "antibody precipitation", "setting": "[1]; benzyl alcohol at high concentration such as 1.0%", "value": "causes antibody precipitation"}, {"measurement": "Visual analysis", "setting": "[1]; preservative 0.5%", "value": "Clear"}, {"measurement": "Visual analysis", "setting": "[1]; [9]", "value": "clear"}, {"measurement": "Visual analysis", "setting": "[1]; preservative 1.0%", "value": "Slightly cloudy"}, {"measurement": "Visual analysis", "setting": "[1]; preservative 2%", "value": "caused sample precipitation; also recorded: Precipitated"}, {"measurement": "Stability by SEC (in words)", "setting": "[2]; 7 days at 45° C.", "value": "unstable due to the formation of soluble aggregates"}, {"measurement": "aggregation (in words)", "setting": "[2]; benzyl alcohol at high concentrations (≧1.0%)", "value": "caused significant aggregation"}, {"measurement": "Monomer (%)", "setting": "[2]; preservative 0.1%", "value": 97.65, "unit": "%"}, {"measurement": "Monomer (%)", "setting": "[2]; preservative 0.5%", "value": 93.92, "unit": "%"}, {"measurement": "Percent monomer (by SEC)", "setting": "[2]; preservative 0.5%", "value": 92.3, "unit": "%"}, {"measurement": "Percent monomer (by SEC)", "setting": "[2]; [9]", "value": "~92", "unit": "%"}, {"measurement": "Monomer (%)", "setting": "[2]; preservative 0.75%", "value": 87.97, "unit": "%"}, {"measurement": "Percent monomer (by SEC)", "setting": "[2]; preservative 1.0%", "value": 13.4, "unit": "%"}, {"measurement": "antimicrobial efficacy against fungi (in words)", "setting": "[3]; 7 days, at least 0.5% benzyl alcohol, parabens and chlorobutanol at their highest concentration", "value": "satisfactory"}, {"measurement": "b-coefficient, Fungal LR", "setting": "[3]; [10]", "value": 0.51}, {"measurement": "Fungi × 10^5 (cfu/mL)", "setting": "[3]; preservative 0.1%", "value": "12 × 10^5 cfu/mL"}, {"measurement": "Fungi × 10^5 (cfu/mL)", "setting": "[3]; preservative 0.5%", "value": "0 × 10^5 cfu/mL"}, {"measurement": "Fungi × 10^5 (cfu/mL)", "setting": "[3]; [9]", "value": "complete kill"}, {"measurement": "Fungi × 10^5 (cfu/mL)", "setting": "[3]; preservative 0.75%", "value": "0 × 10^5 cfu/mL"}, {"measurement": "Fungi × 10^5 (cfu/mL)", "setting": "[3]; [11]", "value": "complete kill"}, {"measurement": "b-coefficient, Fungal LR", "setting": "[3]; [12]", "value": "−0.46"}, {"measurement": "log reduction value predicted by simulation, fungi", "setting": "[3]; [13]", "value": 3.7}, {"measurement": "protein stability compared with the control formulation", "setting": "[4]", "value": "comparable to that of the control formulation"}, {"measurement": "Potency (%)", "setting": "[5]; preservative 0.1%", "value": 81, "unit": "%"}, {"measurement": "Potency (%)", "setting": "[5]; preservative 0.5%", "value": 75, "unit": "%"}, {"measurement": "Potency (%)", "setting": "[5]; preservative 0.75%", "value": 74, "unit": "%"}, {"measurement": "Tm (by DSC)", "setting": "[6]; preservative 0.5%", "value": 78.5, "unit": "°C"}, {"measurement": "Tm (by DSC)", "setting": "[6]; preservative 1.0%", "value": 75.8, "unit": "°C"}, {"measurement": "Tm (by DSC)", "setting": "[6]; preservative 2%", "value": 72.3, "unit": "°C"}, {"measurement": "USP and EP/BP regulatory requirements", "setting": "[7]", "value": "USP and EP/BP (criterion B only) regulatory requirements were satisfied"}, {"measurement": "antimicrobial efficacy against bacteria (regression analysis, in words)", "setting": "[8]; I-optimal design, 14 days at room temperature", "value": "statistically significant antimicrobial efficacy"}, {"measurement": "b-coefficient, Bacterial LR", "setting": "[8]; [10]", "value": "1.04 ± 0.05"}, {"measurement": "Bacterial × 10^4 (cfu/mL)", "setting": "[8]; preservative 0.1%", "value": "TNTC"}, {"measurement": "Bacterial × 10^4 (cfu/mL)", "setting": "[8]; preservative 0.5%", "value": "0 × 10^4 cfu/mL"}, {"measurement": "Bacterial × 10^4 (cfu/mL)", "setting": "[8]; [9]", "value": "complete kill"}, {"measurement": "Bacterial × 10^4 (cfu/mL)", "setting": "[8]; preservative 0.75%", "value": "0 × 10^4 cfu/mL"}, {"measurement": "Bacterial × 10^4 (cfu/mL)", "setting": "[8]; [11]", "value": "complete kill"}, {"measurement": "b-coefficient, Bacterial LR", "setting": "[8]; [12]", "value": "−0.68 ± 0.11"}, {"measurement": "log reduction value predicted by simulation, bacteria", "setting": "[8]; [13]", "value": 4.8}]}]}
